Assay results taken from article PMC12376128, “In vitro and In Vivo Drug Metabolism Analysis of BPI-460372 - A Covalent TEAD1/3/4 Inhibitor” (Current Drug Metabolism, 2025).

Experiments:
[1] = test system: CYP2C8; test: Metabolic stability in HLMs with or without specific CYP inhibitor (quercetin); assay type: in vitro ADME, human; conditions: HLMs 1 mg protein/mL, substrate 1 μM, quercetin 20 µM
Experimental: (§1) Before starting the experiments, the HLMs were thawed gently on ice. Metabolic stability incubations were performed at 37 °C. The incubations contained 100 mM phosphate buffer saline (PBS, pH 7.4), HLMs (1 mg protein·mL^-1), dimethyl sulfoxide (DMSO, blank control) or a selective CYP inhibitor, and BPI-460372 or positive control substrates (final incubation concentration, 1 μM). The incubation process started with the addition of NADPH (1 mM final concentration) after a 5-minute preincubation period. The chemical inhibitors were as follows: a-naphthoflavone (2 µM) for CYP1A2, ticlopidine (20 µM) for 2B6, quercetin (20 µM) for CYP2C8, sulfaphenazole (20 µM) for CYP2C9, ticlopidine (200 µM) for CYP2C19, quinidine (20 µM) for CYP2D6, and ketoconazole (20 µM) for CYP3A [9]. Aliquots were maintained in acetonitrile containing internal standard (IS) at various time points, such as 0 min, 5 min, 10 min, 20 min, 30 min, and 60 min. All incubations were performed in triplicate, and the concentration in the supernatant was determined by liquid chromatography-tandem mass spectrometry (LC-MS/MS).
(§2) The elimination rate constant k (min^-1) was obtained by linear regression from the natural logarithm of the […] of the parent drug and the incubation time. The inhibition rate was calculated using equation 1 [10]: […]

[2] = test system: mouse hepatocytes; test: Metabolism and metabolite formation in hepatocytes; assay type: in vitro ADME, ICR mouse; conditions: ICR mouse hepatocytes, 10 µM BPI-460372, 4 h incubation
Excerpt: (§3) All the samples were duplicates.

[3] = Metabolite identification in dog plasma; assay type: in vivo, beagle dogs; conditions: oral 8 mg/kg BPI-460372, average of male and female pooled samples
Experimental: (§4) The plasma samples were acquired from SD rats (n=6, 3 female and 3 male) and beagle dogs (n=6, 3 female and 3 male) after administration of 12 mg/kg and 8 mg/kg of BPI-460372, respectively. The rat urine, feces, and bile samples were acquired in SD rats after administration of 6 mg/kg of BPI-460372.
(§5) Equal volume from each rat was pooled together to get 1 male and 1 female 0-24 h plasma samples. An equal percentage by volume of individual urine sample (0-8, 8-24, and 24-48 h) from 3 female and 3 male rats was pooled by time interval across rats, respectively, resulting in two pooled urine samples (1 male and 1 female). An equal percentage by weight of individual feces samples (0-8, 8-24, and 24-48 h) was pooled by time interval across female and male rats, resulting in two pooled fecal samples. An equal percentage by volume of individual bile samples (0-4, 4-8, 8-24, and 24-48 h) was pooled by time interval across female and male rats, resulting in two pooled bile samples. […] Equal volumes from 3 female and 3 male rats were pooled together to get two 0-48 h plasma samples. For blank samples of plasma, urine, and bile, equal volume was pooled across subjects. For a blank sample of feces, equal weight was pooled across rats.
(§6) The pooled plasma, feces, and bile samples were extracted by adding 3-fold volume of acetonitrile, and the mixture was vortexed (1 min) and sonicated (1 min) before centrifugation (7220 g, 5 min). The pooled urine samples were centrifuged (7220 g, 5 min). Then the supernatant was transferred into a clean tube and evaporated to dryness under the nitrogen stream. The residues were redissolved with an appropriate volume of acetonitrile/water (20: 80, v: v). After centrifugation, the redissolved solution was transferred into an HPLC vial for UHPLC-Orbitrap-HRMS (15000 g, 10 min, 4°C).

[4] = test system: dog hepatocytes; test: Metabolism and metabolite formation in hepatocytes; assay type: in vitro ADME, beagle dog; conditions: beagle dog hepatocytes, 10 µM BPI-460372, 4 h incubation
Excerpt: as §3

[5] = test system: cysteine S-conjugate β-lyase; test: Effect of cysteine S-conjugate β-lyase inhibitor AOAA on the metabolism of BPI-460372 (rat urine); conditions: for Area ratio in rat urine, mean (%CV): 20 mg/kg BPI-460372 + 100 mg/kg AOAA, once daily 21 days, urine 0-48 h on day 21; for Change of area ratio in rat urine on coadministration with AOAA: 20 mg/kg BPI-460372 with versus without 100 mg/kg AOAA
Experimental: To investigate the effect of cysteine S-conjugate β-lyase on the metabolism of BPI-460372, SD rats were treated with 20 mg/kg BPI-460372 alone (n=3, male) or 20 mg/kg BPI-460372 coadministration with 100 mg/kg cysteine S-conjugate β-lyase inhibitor AOAA (n=3, male), once daily for 21 consecutive days. On day 21, urine samples were collected at 0-8, 8-24 and 24-48 h. The same percentage of urine samples from each rat was taken at these three time intervals and mixed. The samples were analyzed by LC-MS/MS and then semi-quantified using the peak area ratio of analyte versus IS.

[6] = test system: human hepatocytes; test: Metabolism and metabolite formation in hepatocytes; conditions: human hepatocytes, 10 µM BPI-460372, 4 h incubation
[7] = test system: monkey hepatocytes; test: Metabolism and metabolite formation in hepatocytes; assay type: in vitro ADME, cynomolgus monkey; conditions: cynomolgus monkey hepatocytes, 10 µM BPI-460372, 4 h incubation
Excerpt: as §3

[8] = Metabolite identification in rat plasma, urine, feces and bile; assay type: in vivo, SD rats; conditions: for Relative abundance of MS peak areas, Rat Bile 0-48 h / Relative abundance of MS peak areas, Rat Feces 0-48 h / Relative abundance of MS peak areas, Rat Urine 0-48 h: oral 6 mg/kg BPI-460372, average of male and female pooled samples; for Relative abundance of MS peak areas, Rat Plasma 0-24 h: oral 12 mg/kg BPI-460372, average of male and female pooled samples
Experimental: as §4, §5, §6

[9] = test system: rat hepatocytes; test: Metabolism and metabolite formation in hepatocytes; assay type: in vitro ADME, SD rat; conditions: SD rat hepatocytes, 10 µM BPI-460372, 4 h incubation
Excerpt: as §3

[10] = test system: TEAD proteins; test: Covalent binding to TEAD proteins (in vitro); conditions: in vitro studies
[11] = test system: TEAD palmitoylation; test: Inhibition of TEAD palmitoylation (in vitro); assay type: biochemical; conditions: in vitro studies
[12] = molecular target: T1, CYP1A2 (Homo sapiens, UniProt P05177); test: Metabolic stability in HLMs with or without specific CYP inhibitor (α-naphthoflavone); assay type: in vitro ADME; design: HLMs (1 mg protein·mL^-1); tissue BioIVT; host or cells: pooled human liver microsomes; conditions: HLMs 1 mg protein/mL, substrate 1 μM, α-naphthoflavone 2 µM
T1 sequence (P05177 1-516): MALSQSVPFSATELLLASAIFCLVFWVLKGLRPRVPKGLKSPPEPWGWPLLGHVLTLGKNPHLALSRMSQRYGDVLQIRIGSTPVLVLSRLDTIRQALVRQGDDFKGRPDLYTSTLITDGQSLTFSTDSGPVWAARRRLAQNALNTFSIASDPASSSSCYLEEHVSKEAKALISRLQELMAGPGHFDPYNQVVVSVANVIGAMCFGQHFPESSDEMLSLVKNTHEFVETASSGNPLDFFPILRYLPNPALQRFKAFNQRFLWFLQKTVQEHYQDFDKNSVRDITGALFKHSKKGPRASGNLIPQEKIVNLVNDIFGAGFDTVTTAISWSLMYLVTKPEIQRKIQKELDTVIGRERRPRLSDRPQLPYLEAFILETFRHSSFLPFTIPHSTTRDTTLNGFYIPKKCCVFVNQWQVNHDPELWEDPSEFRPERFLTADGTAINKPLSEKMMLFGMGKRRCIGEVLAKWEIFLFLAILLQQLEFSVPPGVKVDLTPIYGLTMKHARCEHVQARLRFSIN
Experimental: as §1, §2

Row | SMILES | Inhibition Rate [1] | UV (314 nm) Peak Areas Relative Abundance [2] | Relative abundance of MS peak areas, Dog Plasma 0-48 h [3] | UV (314 nm) Peak Areas Relative Abundance [4] | Area ratio in rat urine, mean (%CV) [5] | Change of area ratio in rat urine on coadministration with AOAA [5] | UV (314 nm) Peak Areas Relative Abundance [6] | UV (314 nm) Peak Areas Relative Abundance [7] | Relative abundance of MS peak areas, Rat Bile 0-48 h [8] | Relative abundance of MS peak areas, Rat Feces 0-48 h [8] | Relative abundance of MS peak areas, Rat Urine 0-48 h [8] | Relative abundance of MS peak areas, Rat Plasma 0-24 h [8] | UV (314 nm) Peak Areas Relative Abundance [9] | Covalent binding to TEAD proteins [10] | Activity: inhibition of TEAD palmitoylation [11] | Inhibition Rate [12]
1 | CC(=O)O[C@H]1C(=O)[C@@]2(C)[C@H]([C@H](OC(=O)c3ccccc3)[C@]3(O)C[C@H](OC(=O)[C@H](O)[C@@H](NC(=O)c4ccccc4)c4ccccc4)C(C)=C1C3(C)C)[C@]1(OC(C)=O)CO[C@@H]1C[C@@H]2O [Paclitaxel, reference compound] | 78.2% | – | – | – | – | – | – | – | – | – | – | – | – | – | – | –
2 | NC(CSCC(F)C(=O)N1CC(n2c(=O)n(-c3ccc(C(F)(F)F)cc3)c3nccnc32)C1)C(=O)O (centres unmarked) [M528] | – | 24.76% | 7.65% | 22.65% | 0.12 (37) | reduced | 3.01% | 3.01% | 43.88% | 1.61% | 0.69% | 1.53% | 18.4% | – | – | –
3 | O=C(C(O)CO)N1CC(n2c(=O)n(-c3ccc(C(F)(F)F)cc3)c3nccnc32)C1 (centres unmarked) [M423 (BPI-460456)] | – | + | 40.81% | + | 19.0 (57) | – | 2.36% | 2.01% | 0.58% | 9.07% | 17.63% | 2.71% | + | do not covalently bind | inactive | –
4 | CSCC(O)C(=O)N1CC(n2c(=O)n(-c3ccc(C(F)(F)F)cc3)c3nccnc32)C1 (centres unmarked) [M453] | – | – | 3.58% | – | 0.23 (23) | reduced | – | – | – | 1.57% | 17.25% | 0.05% | – | – | – | –
5 | CCOc1ccc(NC(C)=O)cc1 [Phenacetin, phenacetin, reference compound] | – | – | – | – | – | – | – | – | – | – | – | – | – | – | – | 79.2%
6 | CCC(=O)N1CC(n2c(=O)n(-c3ccc(C(F)(F)F)cc3)c3nccnc32)C1 [M391] | – | – | 0.36% | – | – | – | – | – | – | 21.50% | 0.015% | 0.35% | – | – | – | –
7 | NCC(C(=O)O)n1c(=O)n(-c2ccc(C(F)(F)F)cc2)c2nccnc21 (centres unmarked) [M367] | – | – | 0.83% | – | – | – | – | – | – | 2.77% | 2.55% | 0.065% | – | – | – | –
8 | CC(O)C(=O)N1CC(n2c(=O)n(-c3ccc(C(F)(F)F)cc3)c3nccnc32)C1 (centres unmarked) [M407 (BPI-460430)] | – | 1.39% | 6.23% | + | – | – | + | 3.61% | 0.72% | 5.94% | 1.02% | 16.39% | 2.75% | do not covalently bind | inactive | –
9 | O=c1n(-c2ccc(C(F)(F)F)cc2)c2nccnc2n1C1CN(C(O)C(O)CO)C1 (centres unmarked) [M425] | – | – | 0.98% | – | – | – | – | – | – | 2.79% | 2.52% | 0.14% | – | – | – | –
10 | C=CC(=O)N1CC(n2c(=O)n(-c3ccc(C(F)(F)F)cc3)c3nccnc32)C1 [M389] | – | – | 0.15% | – | – | – | – | – | 0.040% | 16.59% | 0.050% | 0.67% | – | – | – | –
